Results on 17 compounds are retold here after article PMC1890308, “Anti-calmodulins and Tricyclic Adjuvants in Pain Therapy Block the TRPV1 Channel” (PLoS ONE, 2007).

The IC50 is the concentration that inhibits the measured activity by half.

One assay concerns the target T1, rat TRPV1 (Rattus norvegicus, UniProt O35433).
T1 construct: expressed in transfected cells
The assay is described as follows: capsaicin-induced 45Ca2+-uptake in TRPV1-NIH3T3 cells. Particulars: for kinetics of Ca2+-transport inhibition: increasing concentrations of capsaicin; for antagonist activity on capsaicin-induced Ca2+-uptake (in words) / IC50: 2 µM capsaicin; for IC50: 10 min, 2×10^−5 M extracellular Ca2+, room temperature; for effect on Ca2+-uptake at low concentrations in the presence of capsaicin: 2 mM capsaicin (so in the source). It is filed as cell-based. As to the method:
Assays were carried out in 2×10^−5 M extracellular Ca^2+ in 96 well plate formats at room temperature (22°C) for 10 min with robotic liquid handling. […] We hypothesized that calmodulin antagonists and some registered drugs may exert their blocking effect with another mechanisms on TRPV1 and not necessarily on their conventional target.
TRPV1-NIH3T3 mouse fibroblast line, ectopically expressing the rat TRPV1 was established previously.
(§1) Vanilloid agonist inducible calcium transport was assayed in adherent cell lines ectopically expressing the C-terminally ε-tagged rat TRPV1 (3×10^4 cells/well) and primary cultures prepared from embryonic DRG, seeded in poly-D lysine/collagen coated 96 well plates. […] The previously established cell lines and standardized DRG cultures were extensively characterized for functional cell-based TRPV1 studies [1]–[4]. Immediately before the transport assay, cells were adapted to room temperature (20°C) for 5 min in HCM. ^45Ca^2+-uptake was performed for 10 min at 20°C in HCM using 0.1 µCi ^45Ca^2+ as radioactive tracer in a 100 µl final volume. To stop ^45Ca^2+-uptake, cells were rapidly changed back into 0.2 ml HCM, washed 4 additional times with 0.2 ml HCM, and then lysed in 80 µl/well RIPA buffer (50 mM Tris-HCl, pH 7.5, 150 mM NaCl, 1% Triton X-100, 0.5% deoxycholate, 0.1% SDS, 5 mM EDTA) for 30 min [1]–[4]. Aliquots of the solubilized cell extracts were mixed with 120 µl Microscint-40 and counted in a 96 well plate liquid scintillation counter (TopCount-NXT, Packard).

A further assay deals with heat-induced tail-flick. More on the design: method as in PMID 8883861. As to conditions: cited from earlier work.
Assay [1] concerns intermediate Ca2+-activated K+ channels (IKCa). Particulars: human erythrocytes; cited from earlier work.
A further assay deals with formalin-induced pain. More on the design: method as in PMID 8883861. Particulars: rat, intrathecal; cited from earlier work.
A further assay concerns the target TRPV1 (Rattus norvegicus, UniProt O35433). The assay is described as follows: capsaicin-induced 45Ca2+-uptake in primary rat embryonic DRG cultures. As to conditions: rat embryonic DRG cultures. Details: sensory neurons, expressing TRPV1 endogenously; endogenous in cells; host or cells: primary cultures of embryonic rat dorsal root ganglia (E14, E16). In kind it is cell-based. The protocol: Primary cultures were prepared from embryonic (E14) rat DRGs. Along with calmidazolium other polycyclic compounds were included in the vanilloid-induced ^45Ca^2+-transport assays.
Primary DRG cultures were prepared from E16 embryonic rats as described previously then plated in 15 cm Petri dishes for 4 h to remove the most adherent fibroblasts. For Ca^2+-uptake studies primary afferents neurons cultured in 96 well plates (3×10^3 cells/well), coated with poly-D lysine/collagen, which yielded both axons and dendrites bearing neurons due to neuronal growth factor supplementation in the culture medium [1]–[4]. The dendrites are large processes branching from the cell body that taper in diameter further from the cell body. The axons are a constant diameter and project over long distances from the cell body. Before the ion transport experiment, culture medium was removed and cells were washed three times. ^45Ca-uptake assays were carried out in “nominally zero Ca^2+” (i.e. 2×10^−5 M extracellular Ca^2+ ([Ca^2+]o) in 25 mM Tris-HCl buffered Hanks' balanced salt solution (pH 7.5), supplemented with 10 µM CaCl2 and 0.8 mM MgCl2medium (HCM) [1]–[4].
as §1

Assay [2] has as its target rat TRPV1 (vanilloid inducible Ca2+-channel/inflammatory pain receptor 1), C-terminally ε-tagged, in TRPV1-NIH3T3 cells (rat) (UniProt O35433).
Assay [3] shares this target. The source holds these as a separate data set.
[4] abbreviates: read-out: IC50, inhibition of capsaicin-induced 45Ca2+-uptake.

Where “and” joins values, the source holds several entries; their conditions need not be identical. Identical values can stand only once. Entries after “also recorded” stand apart in the source; their conditions may differ. Like-named read-outs stand apart in the source and are kept apart here. Ends that are not written are not given here.

TRPV1, sequence (O35433 whole entry): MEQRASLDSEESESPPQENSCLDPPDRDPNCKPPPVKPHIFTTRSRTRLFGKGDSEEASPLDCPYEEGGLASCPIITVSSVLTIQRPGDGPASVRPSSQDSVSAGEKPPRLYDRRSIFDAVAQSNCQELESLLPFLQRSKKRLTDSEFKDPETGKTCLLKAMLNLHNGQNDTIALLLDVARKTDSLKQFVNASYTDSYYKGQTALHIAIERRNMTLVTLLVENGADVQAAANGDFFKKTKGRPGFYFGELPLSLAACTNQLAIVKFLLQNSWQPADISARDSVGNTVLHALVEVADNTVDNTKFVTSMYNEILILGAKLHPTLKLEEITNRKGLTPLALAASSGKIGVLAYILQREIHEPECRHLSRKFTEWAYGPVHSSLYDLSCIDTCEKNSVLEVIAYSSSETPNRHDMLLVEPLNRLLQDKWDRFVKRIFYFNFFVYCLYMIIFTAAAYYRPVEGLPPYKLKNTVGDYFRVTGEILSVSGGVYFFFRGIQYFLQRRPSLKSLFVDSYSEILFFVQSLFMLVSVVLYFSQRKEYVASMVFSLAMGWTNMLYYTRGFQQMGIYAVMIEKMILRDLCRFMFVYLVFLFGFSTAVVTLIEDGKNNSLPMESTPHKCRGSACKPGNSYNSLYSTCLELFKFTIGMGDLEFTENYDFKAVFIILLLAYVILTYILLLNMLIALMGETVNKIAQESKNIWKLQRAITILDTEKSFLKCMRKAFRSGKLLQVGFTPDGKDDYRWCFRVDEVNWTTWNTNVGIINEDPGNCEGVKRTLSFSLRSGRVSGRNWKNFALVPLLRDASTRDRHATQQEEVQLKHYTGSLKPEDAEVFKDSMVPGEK
T1 sequence (O35433 whole entry): as above
rat TRPV1 (vanilloid inducible Ca2+-channel/inflammatory pain receptor 1), C-terminally ε-tagged, in TRPV1-NIH3T3 cells (rat), sequence (O35433 whole entry): as above

Consider `Oc1cc2c(cc1O)CN(C(=S)NCCc1ccc(Cl)cc1)CCC2` [capsazepine], for which the “kinetics of Ca2+-transport inhibition” value on rat TRPV1 is listed as “shifted the capsaicin dose-response curves right”.

Regarding `OCCN1CCN(CCCN2c3ccccc3Sc3ccc(C(F)(F)F)cc32)CC1` [fluphenazine], at rat TRPV1, the “antagonist activity on capsaicin-induced Ca2+-uptake (in words)” value (from here on “antagonist activity”) is “partial or weak inhibitors” and the “effect on Ca2+-uptake at low concentrations in the presence of capsaicin” value (“effect on Ca2+-uptake” below) is “increased Ca^2+-uptake”. In addition, the IC50 on rat TRPV1 (setting [4]) was ~250 µM.

Consider `COc1cc(CNC(=O)CCCC/C=C/C(C)C)ccc1O` [capsaicin], for which the ED100 for capsaicin-induction at rat TRPV1 (pH 7.5) is on record as ~1 µM.

In the case of `NCCCCCCNS(=O)(=O)c1cccc2c(Cl)cccc12` [W-7, N- 6 – aminohexyl – 5 – chloro - 1 naphtalenesulfonamide], the “effect on heat-induced tail-flick latency” value with heat-induced tail-flick was “inhibit”. Moreover, at rat TRPV1, the “antagonist activity” value is listed as “partial or weak inhibitors” and the “effect on Ca2+-uptake” value is “increased Ca^2+-uptake”. In addition, at rat TRPV1 (setting [4]), the IC50 was ~200 µM. Moreover, the “activity on IKCa channels (in words)” value in assay [1] is “inactive”. Besides, the “analgesia in both phases of formalin tests” value in the assay with formalin-induced pain is recorded as “analgesic”.

As to `CN(C)CCCN1c2ccccc2Sc2ccc(Cl)cc21` [chlorpromazine], on rat TRPV1, the “antagonist activity” value is on record as “full antagonists” and the “kinetics of Ca2+-transport inhibition” value is “non-competitive inhibition kinetics”. The IC50 at rat TRPV1 (setting [4]) came to 70 µM.

As to `Fc1ccc(C(c2ccc(F)cc2)N2CCN(C/C=C/c3ccccc3)CC2)cc1` [flunarizine], the “blocking activity on capsaicin-induced Ca2+-uptake (in words)” value (shortened to “blocking activity”) at TRPV1 is “partially active; also recorded: partial blocking activity”.

In the case of `Fc1cc(F)cc(C[n+]2ccn(CC(OCc3ccc(Cl)cc3Cl)c3ccc(Cl)cc3Cl)c2)c1` (stereo not drawn) [M1, Miconazole 1], the concentration for half-maximal inhibition (IC50) at rat TRPV1 (setting [4]) was 8 µM.

Consider `CN(C)CCC=C1c2ccccc2CCc2ccccc21` [amitriptyline], for which the IC50 on rat TRPV1 (setting [4]) is ~60 µM and 60 µM.

`O=C1CSC(c2ccccc2Cl)c2cc(Cl)ccc2N1` (stereo not drawn) [CGP-37157, 7-Chloro - 5 - (2 - chlorophenyl) - 1,5 - dihydro - 4,1 – benzothiazepin - 2(3H) - one]: the results for the “blocking activity” value at TRPV1 and on TRPV1 (listed as CGP 37157) were “partially active” and “partial blocking activity”, respectively.

Consider `Clc1ccc(COC(Cn2cc[n+](CC3CCCCC3)c2)c2ccc(Cl)cc2Cl)c(Cl)c1` (stereo not drawn) [M2, Miconazole 2], for which the IC50 on rat TRPV1 (setting [4]) was 8 µM.

Consider `CN1CCN(CCCN2c3ccccc3Sc3ccc(C(F)(F)F)cc32)CC1` [trifluoperazine], for which the “antagonist activity” value on rat TRPV1 was “full antagonists”. Besides, the half-maximal inhibitory concentration (IC50) at rat TRPV1 (setting [4]) was 9 µM and < 10 µM. Besides, the “activity on IKCa channels (in words)” value in assay [1] is “inactive”.

On to `N=C(N)NCCC[C@H](NC(=O)COCC(c1ccccc1)c1ccccc1)C(=O)O` [SB 290157, N2-[(2,2-Diphenylethoxy)acetyl]-L-arginine], for which the “blocking activity” value on TRPV1 is listed as “partial blocking activity”.

Regarding `NCC1(CC(=O)O)CCCCC1` [gabapentine], the “antagonist activity” value on rat TRPV1 is given as “partial inhibition”.

Turning to `NC(=O)N1c2ccccc2C=Cc2ccccc21` [carbamazepine], the “antagonist activity” value at rat TRPV1 is “inactive”; on rat TRPV1 (listed as Carbamazepine), “completely inactive”.

As for Camstatin (peptide), the inhibition of capsaicin (2 µM)-induced 45Ca2+-uptake in intact TRPV1-NIH3T3 cells, 10 min, camstatin co-incubated in the uptake medium in assay [2] amounted to 11 µM. Also, the inhibition of capsaicin-induced Ca2+-uptake in TRPV1-NIH3T3 cells in assay [3] came to 20 µM.

Turning to APETERAAVAIQAQFRKFQKKKAGS [camstatin], at rat TRPV1 (IC50, inhibition of capsaicin-induced 45Ca2+-uptake), the half-maximal inhibitory concentration (IC50) is 11 µM and 20 µM.

Turning to `NCCCCNS(=O)(=O)c1ccc2c(Cl)cccc2c1` [W-13, N - (4 - Aminobutyl) – 5 - chloro-2-naphthalenesulfonamide], at rat TRPV1, the “antagonist activity” value is listed as “partial or weak inhibitors” and the “effect on Ca2+-uptake” value is “increased Ca^2+-uptake”. At rat TRPV1 (setting [4]), the concentration for half-maximal inhibition (IC50) was > 300 µM.
